From patent publication US8710018B2, “Methods and compositions for inhibiting progression to chronic cardiac failure” (priority 2008, dated 2014)

Legend:
rodent MI model = conditions: continuous i.v. ribose from before ligation for up to 48 hours, cited from earlier work
[1] = tested on: rat myocardial infarction model (left anterior descending (LAD) artery ligation); test: Rat myocardial infarction model (LAD artery ligation), echocardiographic function of the remote myocardium; assay type: in vivo
Excerpt: Although believed to be applicable to several different precipitating causes of CHF, the present inventor initially chose a myocardial infarction model because it would allow the effects of the infarct on the normal remaining myocardium to be studied without confounding factors, particularly the presence of disease in the tissues studied.
An important consequence of an MI is that the uninvolved, often normal, remote myocardium (RM) must assume the entire workload of the ventricle. […] The subcellular events which control and set in motion, the progression to CHF were heretofore unknown. The present inventor hypothesized that the progression begins when the remaining normal myocardium (RM) must assume the entire cardiac load, in effect a large increase for the RM, producing an unfavorable myocardial energy supply/demand ratio which leads to depressed myocardial energy levels. Moreover, because of the continuous nature of the stress imposed, there is essentially no opportunity to recover. As a result, the continued breakdown of AMP with further erosion of ATP levels occurs. Studies to understand this progression in a myocardial infarction (MI) model were undertaken. The hypothesis that a fall in RM energy levels, including myocardial ATP, leads to decreased function was tested by infusing ribose in a rat MI model. A rat myocardial infarction model involving (left anterior descending (LAD) artery ligation) was utilized. In this model the RM must produce the entire cardiac output and left ventricular (LV) dysfunction develops as depicted in FIG. 2 and in the results depicted in FIGS. 3-6.
Methods: Male Lewis rats (250-300 g, n=12) were evaluated by initial baseline 2D guided M-mode echocardiographic analysis using an HP SONOS 1550 system. The echocardiography included short axis views and EF by cubed formula, analyzing the variables of LVdd, LVsd, RM wall thickness, EF and SF. […] Animals underwent ligation of the left anterior descending coronary artery by to produce an anterior wall MI at 1-2 days after pump placement and received continuous venous infusion of 0.9% NaCl solution (at 30 μl/kg/hr) with or without 2.5% D-ribose (N=6 for each group) via the implanted osmotic mini-pump for 14 days. Echocardiographic analysis was performed 2 and 4 weeks post-MI to assess changes in function by ejection indices (ventricular contractility, ejection and shortening fractions), chamber dimensions, and wall thickness. FIG. 3 depicts the M-mode echocardiographic appearance of a rat heart in which post MI CHF has developed.

[2] = tested on: patients with chronic coronary artery disease and CHF; conditions: 3 weeks of oral D-ribose, 15 patients with existing CHF, cited from earlier work
myocardial ATP levels [3] = conditions: cited from earlier work
myocardial ATP levels [4] = conditions: rats given a toxic dose of isoproterenol and constriction of the abdominal aorta; cited from earlier work
[5] = 2 wks post MI, 2.5% D-ribose continuous venous infusion for 14 days
[6] = 4 wks post MI, 2.5% D-ribose continuous venous infusion for 14 days
[7] = Pre-MI (baseline), ribose group
[8] = ribose infusion for 14 days after MI

**Q.** Which “post-MI rise in LV end-diastolic pressure” value (rodent MI model) does the source give for `O=C[C@H](O)[C@H](O)[C@H](O)CO` [Ribose, D-ribose] here?
**A.** reduced

**Q.** What about the “fall of ATP in the nonischemic myocardium” value (rodent MI model; first (24 hr) time point) of the same molecule?
**A.** reduce the fall of ATP

**Q.** And the “Ejection fraction (EF)” value [1, 5]?
**A.** 50.5 ± 5.9 %

**Q.** And the LV diastolic diameter [1, 5]?
**A.** 0.72 ± 0.08 cm

**Q.** And the LV systolic diameter [1, 5]?
**A.** 0.47 ± 0.22 cm

**Q.** What about the “Posterior wall diastolic thickness” value [1, 5] of the same molecule?
**A.** 0.18 ± 0.12 cm

**Q.** What about the “Shortening fraction (SF)” value [1, 5] of the same molecule?
**A.** 19.8 ± 4.4%

**Q.** What about the “Ejection fraction (EF)” value [1, 6] of the same molecule?
**A.** 49.1 ± 9.4 %

**Q.** What about the LV diastolic diameter [1, 6] of the same molecule?
**A.** 0.76 ± 0.07 cm

**Q.** What about the LV systolic diameter [1, 6] of the same molecule?
**A.** 0.64 ± 0.09 cm

**Q.** And the “Posterior wall diastolic thickness” value [1, 6]?
**A.** 0.13 ± 0.03 cm

**Q.** What about the Septal diastolic thickness [1, 6] of the same molecule?
**A.** 0.12 ± 0.02 cm

**Q.** And the “Shortening fraction (SF)” value [1, 6]?
**A.** 19.9 ± 6.1 %

**Q.** And the “Ejection fraction (EF)” value [1, 7]?
**A.** 76.4 ± 5.9%

**Q.** What about the LV systolic diameter [1, 7] of the same molecule?
**A.** 0.39 ± 0.06 cm

**Q.** And the “Posterior wall diastolic thickness” value [1, 7]?
**A.** 0.13 ± 0.02 cm

**Q.** And the Septal diastolic thickness [1, 7]?
**A.** 0.13 ± 0.02 cm

**Q.** What about the “Shortening fraction (SF)” value [1, 7] of the same molecule?
**A.** 38.6 ± 5.3%

**Q.** What about the LV diastolic diameter ([1]; Pre-MI (baseline), ribose group, 2.5% D-ribose continuous venous infusion 30 μl/kg/hr for 14 days) of the same molecule?
**A.** 0.64 ± 0.04 cm

**Q.** And the “contractility (EF, SF) compared to the untreated animals” value [1, 8]?
**A.** better preserved

**Q.** What about the ventricular dilation [1, 8] of the same molecule?
**A.** significantly reduced

**Q.** What about the “wall thickness compared to the untreated animals” value [1, 8] of the same molecule?
**A.** increased

**Q.** What about the “quality of life by questionnaire” value ([2]; P< or =0.01) of the same molecule?
**A.** 467±128

**Q.** What about the E wave deceleration ([2]; P=0.002) of the same molecule?
**A.** 196±42

**Q.** And the left atrial dimension ([2]; P=0.02)?
**A.** 47 ± 18 mL

**Q.** And the “speeding of ATP recovery” value (myocardial ATP levels [3]; acute stress models of recovery (i.e. global ischemia), ribose bypasses the G6PDH step)?
**A.** at least 10 fold

**Q.** What about the “return of myocardial ATP levels and function” value (myocardial ATP levels [3]; global ischemia and reperfusion model, ribose infusion) of the same molecule?
**A.** greatly enhance return

**Q.** What about the ATP levels (myocardial ATP levels [4]) of the same molecule?
**A.** maintained for 24 hours
